The target of this experiment is MAP kinase-activated protein kinase 2 (Homo sapiens, UniProt P49137). Put plainly: Kinase reactions were started with the addition of 40 μL of MK-2 enzyme and monitored every 71 seconds for 30-240 minutes at λex360/λem485 in a Synergy2, Synergy4 or Synergy H4 plate reader from BioTek (Winooski, Vt.). […] Initial velocity (0 minutes to +30 minutes) from each reaction was estimated from the slope of a plot of relative fluorescence units vs time (minutes) and normalized to the no enzyme and no inhibitor control groups for % Inhibition. The resulting % Inhibition values were then plotted against inhibitor concentration to estimate IC50 from log[Inhibitor] vs Response, Variable Slope model in GraphPad Prism from GraphPad Software (San Diego, Calif.).
Chain of MAP kinase-activated protein kinase 2 (P49137 whole entry): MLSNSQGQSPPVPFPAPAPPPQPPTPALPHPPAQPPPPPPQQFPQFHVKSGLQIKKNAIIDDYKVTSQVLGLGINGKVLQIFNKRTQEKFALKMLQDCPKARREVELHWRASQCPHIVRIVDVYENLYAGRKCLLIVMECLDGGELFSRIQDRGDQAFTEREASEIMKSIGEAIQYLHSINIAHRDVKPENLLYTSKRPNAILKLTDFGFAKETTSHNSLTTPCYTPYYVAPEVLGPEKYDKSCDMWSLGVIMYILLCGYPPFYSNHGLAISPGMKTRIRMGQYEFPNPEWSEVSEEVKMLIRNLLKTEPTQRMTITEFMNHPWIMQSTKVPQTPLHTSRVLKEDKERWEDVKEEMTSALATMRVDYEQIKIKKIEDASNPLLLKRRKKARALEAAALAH

One may read the EC50 as the midpoint of the concentration-response curve. What is called IC50 is the concentration that inhibits the measured activity by half. For `C=CC(=O)Nc1cc(NC(=O)c2ccc3sc4c(c3c2)NC[C@@H](C)NC4=O)ccc1C1CCN(C)CC1`, the EC50 is below 100 nM and the IC50 is below 100 nM.

For the compound `C=CC(=O)N1CCOc2ccc(-c3cc4c(cn3)CCc3c-4[nH]c4c3C(=O)NCC4)cc21`, the IC50 was below 100 nM.

`C=CC(=O)Nc1cc(-c2cc3c(ccc4c5c([nH]c43)CCC5=O)cn2)ccc1C`: the EC50 is below 100 nM and the IC50 was below 100 nM.

Source of the values: ChEMBL document CHEMBL5728686, “MK2 inhibitors and uses thereof” (2021).
